The values below come from PMC6013495, “Development of a Novel Backbone Cyclic Peptide Inhibitor of the Innate Immune TLR/IL1R Signaling Protein MyD88” (Scientific Reports, 2018).

Assay [1] addresses T1, human MyD88 TIR domain (aa 150–296) (Homo sapiens, UniProt Q99836).
T1 construct: human MyD88 TIR domain residues 150–296; His tag; made in house; host or cells: E. coli BL21 C43 (DE3)
In words: Competitive binding assay, Biotin-MyDI on recombinant SUMO-MyD88-TIR. The note with it: SUMO-MyD88-TIR 8 µg/ml coated, Streptavidin-HRP read-out. From the text:
A synthetic DNA fragment corresponding to the cDNA encoding human MyD88 TIR domain residues 150–296 with BamH/Xhol restriction enzymes was from IDT (Integrated DNA technologies, IA, USA). DNA was amplified with the Ready-mix PCR kit (Sigma), and ligated (New England BioLabs, MA, USA) with the restriction enzymes BamH and Xhol (TaKaRa, Kusatsu, Shiga Prefecture, Japan) to pETM-11 SUMO3GFP fusion vector for protein expression in E. coli, a gift from the EMBL protein expression and purification core facility. Plasmids were gel purified with PureLink Quick Gel Extraction kit (Invitrogen, San Diego, CA, USA), sequence verified, and transformed to (C2987) NEB Dh5a competent cells (New England BioLabs) and amplified with a QIAGEN plasmid midiprep kit. The recombinant fusion protein- SUMO-MyD88-TIR was expressed in E. coli BL21 C43 (DE3) cells (Lucigen, WI, USA). E. coli BL21 C43(DE3) were grown in 2xYT medium containing 1% glucose, […] MgSO4 and 20xNPS (100 mM PO4, 25mMSO4, 50 mM NH4. 100 mM Na, 50 mM K) up to mid-log phase (O.D-0.6) in 37 °C and then were grown o.n at 25 °C with 0.4 mM IPTG (Sigma). […]
The recombinant SUMO-MyD88-TIR protein (8 µg/ml) was attached to polystyrene microtiter 96 well plates (Nunc, Roskilde, Denmark) at 4 °C o.n. […] After 5 min, 2 N sulfuric acid stop solution was added and absorbance was read at 450 nm in an Infinite 200 Pro plate reader (Tecan). […]

The target in assay [2] is T2, SUMO protein fused to eGFP (Homo sapiens, UniProt P55854).
T2 construct: His tag; made in house; host or cells: E. coli BL21 C43 (DE3)
In words: Binding of Biotin-MyDI to control SUMO-eGFP fusion protein. Particulars: SUMO-eGFP coated, Streptavidin-HRP read-out.

T1 sequence (Q99836 150-296): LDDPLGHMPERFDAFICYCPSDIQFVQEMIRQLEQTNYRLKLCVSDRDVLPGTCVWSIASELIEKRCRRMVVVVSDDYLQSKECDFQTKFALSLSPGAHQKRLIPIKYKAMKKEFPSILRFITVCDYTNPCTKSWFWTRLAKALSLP

On to “Biotin-MyDI: Biotinylated linear BB loop peptide RDVLPGT, from Bio Basic Inc.”, for which, in assay [1], the “binding to the MyD88 TIR domain” value is “bound the TIR domain in a concentration dependent manner”. For the same substance, the “binding to control fusion protein” value in assay [2] is reported as “did not bind at any concentration”.
